Data published in US20170143748A1, “ANTI-TUMOR PHARMACEUTICAL APPLICATION OF PENTACYCLIC TRITERPENE SAPONIN COMPOUNDS OF SZECHUAN MELANDIUM ROOT” (priority 2014, published 2017).

Key:
[1] = system: BGC823 human gastric adenocarcinoma; experiment: Anti-BGC823 human gastric adenocarcinoma in BALB/c (nu/nu) nude mice; assay type: in vivo; parameters: tumor volume of BGC823-bearing nude mice / Tumor mass: unit not given here; details: for body weight of BGC823-bearing nude mice / tumor volume of BGC823-bearing nude mice: mg/kg BW: total saponins 1.5, Compound 1, combination 1 & 19, 5-FU 20, Sc; for body weight of BGC823-bearing nude mice: in g (unit assumed)
Method: Human resources gastric adenocarcinoma cell line BGC823 was cultured in the same condition as the experiment 4.
The body weight and the tumor volume were measured and recorded weekly. The tumor volume was calculated according to the formula below.
Tumors were departed and weighed. Tumor Index and inhibition rate were calculated as below: […]

[2] = system: HepG2; experiment: MTT inhibition of tumor cells in vitro (Example 3); assay type: cell-based, Human; details: 40 μg/mL
[3] = system: A875; experiment: MTT inhibition of tumor cells in vitro (Example 3); assay type: cell-based, Human; details: 48 hours
Method: (§1) Human resources tumor cell line […], […], HT29, MCF-7 and A875 were provided by Cancer Hospital, Chinese Academy of Medical Sciences.
(§2) Cells were passaged every 2 or 3 days, and all the experiments were carried out on exponentially growing cells.
(§3) All cells were cultured in a humidified atmosphere (5% CO2 and […]), and passaged every 2 or 3 days. Cells were harvested on exponentially growing phase, and cell suspension was prepared with 2×10^4 cells/mL, added with 100 μL per well of 96-well plates, and cultured for 24 h in incubator. 100 μL medium without cells was added per well as blank group.
(§4) Compound (1), (2), (3), (4), (7) or (8) was dissolved in DMSO respectively, and diluted with 1640 medium at a final concentration of 400 μg/mL, so as to that of the Cisplatin. Cells were divided into 9 groups, they were blank group, model group, Compound (1), (2), (3), (4), (7) and (8) groups, and Cisplatin group as the positive one, 6 wells per group.
(§5) Before drug administration, supernatant of each well was removed and fresh 1640 medium was added, 180 μL per well. Compounds and Cisplatin were added with 20 μL per well respectively at a final concentration of 40 μg/mL. Wells of blank and model groups were added with 0.5% DMSO, 20 μL per well. 48 hours later, 20 μL MTT was added per well and continued to culture for 4 hours, then the supernatant was replaced carefully and DMSO was added with 150 μL per well to end the experiment. The 96-well plates were shaken for 10 mins and read the absorbance at 490 nm. The Inhibition rate was calculated.
(§6) Inhibition rate=[(ODmodel−ODblank)−(ODdrugs−ODblank)]/(ODmodel−ODblank)×100%
(§7) The MTT experiment was repeated three times.

[4] = system: BGC823; experiment: MTT inhibition of tumor cells in vitro (Example 3); assay type: cell-based, Human; details: 40 μg/mL
Method: as §1, §2, §3, §4, §5, §6, §7

[5] = system: MCF-7; experiment: MTT inhibition of tumor cells in vitro (Example 3); assay type: cell-based, Human; details: 48 hours
Method: as §1, §2, §3, §4, §5, §6, §7

[6] = system: HT29; experiment: MTT inhibition of tumor cells in vitro (Example 3); assay type: cell-based, Human; details: 40 μg/mL
Method: as §1, §2, §3, §4, §5, §6, §7

[7] = system: HepG2 human heptoma; experiment: Anti-HepG2 human heptoma in BALB/c (nu/nu) nude mice; details: for body weight of HepG2-bearing nude mice / tumor volume of HepG2-bearing nude mice: mg/kg BW: total saponins 1.5, Compound 1, combination 1 & 39, Cytoxan 40, Sc
Method: 70 male BALB/c (nu/nu) nude mice (18-20 g, License NO. SCXK (BJ) 2009-0017, National Institutes for Food and Drug Control.) were adaptively bred for one week, and then used in the following experiment.
Human resources hepatoma cell line HepG2 was cultured in RPMI-1640 medium containing 100 U/mL Penicillin and 100 μg/mL Streptomycin with 10% fetal bovine serum and maintained at 37° C. in a humidified atmosphere (5% CO2 and […]).
70 BALB/c (nu/nu) nude mice were adaptively bred for 1 week, HepG2 cells were inoculated subcutaneously into the back of nude mice, 1×10^7 cells per mouse. […] 3 days after inoculation, mice of every therapeutic group were all given the relevant compounds or drugs for 3 weeks, and others were given isodose physiological saline.
The body weight and the size of tumor were measured and recorded weekly. The tumor volume was calculated with the formula below:
tumor volume V=π/6×a×b^2 (a, b means the transverse and longitudinal length of tumor)
At the end of administration, mice were fastened for 8 hours, weighed the fasting body weight, dropped off eyeball to collect blood, centrifuged and collected serum for next experiment. The tumors were departed and weighed. Tumor Index and inhibition rate were calculated as below:
Tumor Index=Tumor mass (mg)/body weight of animal (g)
Inhibition rate=(Average tumor massControl group−Average tumor massadministration group)/Average tumor massControl group×100%
Mice in the model group were injected with sterile water (10 ml/kg BW), Sc. All the animals were treated at 9 am for 3 weeks.
Determination of body weights: Body weights of animals were weighed and recorded once a week.
Tumor measurement: The transverse and longitudinal lengths of tumor were measured with vernier caliper weekly.
End of the experiment: After mice being administrated for 3 weeks (21 days), the experiment was terminated.

O=c1[nH]cc(F)c(=O)[nH]1 [Compound 5-FU, 5-FU, reference compound]
body weight of BGC823-bearing nude mice ([1]; 0 W): 20.20 ± 1.23
tumor volume of BGC823-bearing nude mice ([1]; 1 W): 931.38 ± 623.32
body weight of BGC823-bearing nude mice ([1]; 1 W): 19.50 ± 1.51
tumor volume of BGC823-bearing nude mice ([1]; 2 W): 1262.33 ± 764.46
body weight of BGC823-bearing nude mice ([1]; 2 W): 18.20 ± 1.81
tumor volume of BGC823-bearing nude mice ([1]; 3 W): 2212.36 ± 1196.96
body weight of BGC823-bearing nude mice ([1]; 3 W): 16.70 ± 2.20
Inhibition rate ([1]; BGC823-bearing nude mice, after 3 weeks, from average tumor mass vs model): 54.85%
Tumor index ([1]; BGC823-bearing nude mice, after 3 weeks, tumor mass/body weight): 0.08 ± 0.04

COC(=O)C1CC(O[C@H]2CC[C@]3(C)[C@H]4C=CC5[C@@H]6CC(C)(C)CC[C@]6(C(=O)OC6OC(C)C(OC(=O)/C=C\c7ccc(C)cc7)C(OC(C)=O)C6OC6CC(C)C(O)C(O)C6O)[C@H](O)C[C@@]5(C)[C@]4(C)CC[C@H]3[C@]2(C)C=O)C(OC2OC(CO)C(O)C(O)C2O)C(OC2OCC(O)C(O)C2O)C1O (stereo partly shown) [Compound (4), sinocrassuloside IV]
inhibition at 40 µg/mL ([2]; Homo sapiens, HepG2, 48 h, read-out: Inhibition rate, HepG2): 65.7 ± 1.05%
inhibition at 40 µg/mL ([3]; Homo sapiens, A875, 40 μg/mL, read-out: Inhibition rate, A875): 70.5 ± 9.76%
inhibition at 40 µg/mL ([4]; Homo sapiens, BGC-823, 48 h, read-out: Inhibition rate, BGC823): 92.4 ± 6.24%
inhibition at 40 µg/mL ([5]; Homo sapiens, MCF7, 40 μg/mL, read-out: Inhibition rate, MCF-7): 56.2 ± 1.96%
inhibition at 40 µg/mL ([6]; Homo sapiens, HT-29, 48 h, read-out: Inhibition rate, HT29): 90.6 ± 5.6%

CCCCOC(=O)C1OC(O[C@H]2CC[C@]3(C)[C@H]4CC=C5[C@@H]6CC(C)(C)CC[C@]6(C(=O)OC6OC(C)C(OC(=O)/C=C\c7ccc(OC)cc7)C(OC(C)=O)C6OC6OC(C)C(O)C(O)C6O)[C@H](O)C[C@@]5(C)[C@]4(C)CC[C@H]3[C@]2(C)C=O)C(OC2OC(CO)C(O)C(O)C2O)C(OC2OCC(O)C(O)C2O)C1O (stereo partly shown) [Compound (8), sinocrassuloside XIII]
Inhibition rate, HepG2 ([2]; 48 hours): 41.25 ± 1.27%
Inhibition rate, A875 ([3]; 40 μg/mL): 55.32 ± 13.35%
Inhibition rate, BGC823 ([4]; 48 hours): 56.00 ± 7.90%
Inhibition rate, MCF-7 ([5]; 40 μg/mL): 61.32 ± 11.67%
Inhibition rate, HT29 ([6]; 48 hours): 77.22 ± 6.17%

O=P1(N(CCCl)CCCl)NCCCO1 (stereo not shown) [Cytoxan, reference compound]
body weight of HepG2-bearing nude mice ([7]; 0 W): 19.20 ± 0.63
body weight of HepG2-bearing nude mice ([7]; 1 W): 18.50 ± 1.08
tumor volume of HepG2-bearing nude mice ([7]; 1 W): 988.47 ± 705.60
body weight of HepG2-bearing nude mice ([7]; 2 W): 16.00 ± 1.41
tumor volume of HepG2-bearing nude mice ([7]; 2 W): 1220.93 ± 881.80
body weight of HepG2-bearing nude mice ([7]; 3 W): 14.70 ± 1.34
tumor volume of HepG2-bearing nude mice ([7]; 3 W): 1593.79 ± 955.17
Inhibition rate ([7]; HepG2-bearing nude mice, after 3 weeks, from average tumor mass vs model): 70.46%
Tumor index ([7]; HepG2-bearing nude mice, after 3 weeks, tumor mass/body weight): 0.06 ± 0.02
